Assays:
Type in all cases: in vivo
[1] = tested on: sandbur (southern sandbur, Cenchrus echinatus); assay: Test E pre-/postemergence: sandbur; settings: scale 0 to 100
How it was run: (§1)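 Greenhouse pot test, both timings. Pre: silt loam, sprayed after planting. Post: 2–18 cm plants (1–4 leaf), peat moss/vermiculite mix. Same surfactant-containing formulation for both. Read: visual % control, 0–100, day 14–21.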

[2] = tested on: nutsedge, yellow (yellow nutsedge, Cyperus esculentus); assay: Test E pre-/postemergence: nutsedge, yellow; settings: Preemergence, scale 0 to 100
How it was run: as §1

[3] = tested on: foxtail, giant (giant foxtail, Setaria faberii); assay: Test E pre-/postemergence: foxtail, giant; settings: Preemergence, scale 0 to 100
How it was run: as §1

[4] = tested on: chickweed (common chickweed, Stellaria media); assay: Test D pre-/postemergence: chickweed
How it was run: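 Visual 0–100 rating versus untreated controls (0 no effect, 100 complete control), taken 14 to 21 days after treatment in a controlled growth environment. Preemergence: silt loam soil. Postemergence: peat moss/vermiculite medium, plants 2 to 18 cm, 1- to 4-leaf stage. Solvent mixture with surfactant.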

[5] = tested on: soybean (Glycine max); assay: Test E pre-/postemergence: soybean; settings: scale 0 to 100
How it was run: as §1

[6] = tested on: corn (Zea mays); assay: Test E pre-/postemergence: corn; settings: scale 0 to 100
How it was run: as §1

[7] = tested on: crabgrass, large (large crabgrass, Digitaria sanguinalis); assay: Test E pre-/postemergence: crabgrass, large; settings: Preemergence, scale 0 to 100
How it was run: as §1

[8] = tested on: nightshade (eastern black nightshade, Solanum ptycanthum); assay: Test E pre-/postemergence: nightshade; settings: Preemergence, scale 0 to 100
How it was run: as §1

[9] = tested on: smartweed (ladysthumb smartweed, Polygonum persicaria); assay: Test E pre-/postemergence: smartweed; settings: Postemergence, scale 0 to 100
Description: Seeds of plant species selected from corn (Zea mays), soybean (Glycine max), velvetleaf (Abutilon theophrasti), lambsquarters (Chenopodium album), poinsettia, wild (wild poinsettia, Euphorbia heterophylla), pigweed, palmer (palmer pigweed, Amaranthus palmeri), waterhemp (common waterhemp, Amaranthus rudis), smartweed (ladysthumb smartweed, Polygonum persicaria), surinam grass (Brachiaria decumbens), crabgrass, large (large crabgrass, Digitaria sanguinalis), crabgrass, Brazil (Brazilian crabgrass, Digitaria horizontalis), panicum, fall (fall panicum, Panicum dichotomiflorum), foxtail, giant (giant foxtail, Setaria faberii), foxtail, green (green foxtail, Setaria viridis), goosegrass (Eleusine indica), johnsongrass (Sorghum halepense), ragweed (common ragweed, Ambrosia elation), barnyardgrass (Echinochloa crus-galli), sandbur (southern sandbur, Cenchrus echinatus), arrowleaf sida (Sida rhombifolia), ryegrass, Italian (Italian ryegrass, Lolium multiflorum), dayflower, (VA) (Virginia dayflower, Commelina virginica), field bindweed (Convolvulus arvensis), cocklebur (common cocklebur, Xanthium strumarium), morningglory (Ipomoea coccinea), nightshade (eastern black nightshade, Solanum ptycanthum), kochia (Kochia scoparia), nutsedge, yellow (yellow nutsedge, Cyperus esculentus) and beggarticks (hairy beggarticks, Bidens pilosa) were planted into a silt loam soil and treated preemergence with test chemicals formulated in a non-phytotoxic solvent mixture which included a surfactant. At the same time, plants selected from these crop and weed species were planted in pots containing a growing medium comprising spaghnum peat moss, vermiculite, wetting agent and starter nutrients and treated with postemergence applications of some of the test chemicals formulated in the same manner. Plants ranged in height from 2 to 18 cm for postemergence treatments (1- to 4-leaf stage).
Treated plants and controls were maintained in a greenhouse for 14 to 21 days, after which time all species were compared to controls and visually evaluated. Plant response ratings, summarized in Table E, are based on a scale of 0 to 100 where 0 is no effect and 100 is complete control. A dash (-) response means no test result.

[10] = tested on: velvetleaf (Abutilon theophrasti); assay: Test E pre-/postemergence: velvetleaf; settings: Preemergence, scale 0 to 100
How it was run: as §1

[11] = tested on: field bindweed (Convolvulus arvensis); assay: Test E pre-/postemergence: field bindweed; settings: scale 0 to 100
How it was run: as §1

For `Cc1nn(-c2ccc(C(F)(F)F)cc2)nc1Oc1ccnc(C(F)(F)F)c1` [Compound 120], the “Plant response rating: Sandbur” value ([1]; Postemergence, 8 g ai/ha) was 10, the “Plant response rating: Sandbur” value ([1]; Postemergence, 16 g ai/ha) was 10 and the “Plant response rating: Sandbur” value ([1]; Postemergence, 31 g ai/ha) was 20. For the same molecule, the “Plant response rating: Sandbur” value ([1]; Postemergence, 62 g ai/ha) was 30, the “Plant response rating: Sandbur” value ([1]; Postemergence, 125 g ai/ha) was 35 and the “Plant response rating: Sandbur” value ([1]; Preemergence, 16 g ai/ha) was 5. The “Plant response rating: Sandbur” value ([1]; Preemergence, 31 g ai/ha) was 5, the “Plant response rating: Sandbur” value ([1]; Preemergence, 62 g ai/ha) was 5 and the “Plant response rating: Sandbur” value ([1]; Preemergence, 125 g ai/ha) was 20. The “Plant response rating: Sandbur” value ([1]; Preemergence, 250 g ai/ha) was 75, the “Plant response rating: Nutsedge, Yellow” value ([2]; 16 g ai/ha) was 0 and the “Plant response rating: Nutsedge, Yellow” value ([2]; 31 g ai/ha) was 0. For the same molecule, the “Plant response rating: Nutsedge, Yellow” value ([2]; 62 g ai/ha) was 0, the “Plant response rating: Nutsedge, Yellow” value ([2]; 125 g ai/ha) was 15 and the “Plant response rating: Nutsedge, Yellow” value ([2]; 250 g ai/ha) was 25. The “Plant response rating: Foxtail, Giant” value ([3]; 16 g ai/ha) was 85, the “Plant response rating: Foxtail, Giant” value ([3]; 31 g ai/ha) was 100 and the “Plant response rating: Foxtail, Giant” value ([3]; 62 g ai/ha) was 100. For the same molecule, the “Plant response rating: Foxtail, Giant” value ([3]; 125 g ai/ha) was 100, the “Plant response rating: Foxtail, Giant” value ([3]; 250 g ai/ha) was 100 and the “Plant response rating: Chickweed” value ([4]; Postemergence, 31 g ai/ha, scale 0 to 100 (0 no effect, 100 complete control)) was 85. For the same molecule, the “Plant response rating: Chickweed” value ([4]; Postemergence, 62 g ai/ha, scale 0 to 100 (0 no effect, 100 complete control)) was 98, the “Plant response rating: Chickweed” value ([4]; Postemergence, 125 g ai/ha, scale 0 to 100, 0 no effect, 100 complete control) was 100 and the “Plant response rating: Chickweed” value ([4]; Postemergence, 250 g ai/ha, scale 0 to 100 (0 no effect, 100 complete control)) was 100. The “Plant response rating, Chickweed” value ([4]; Postemergence, 16 g ai/ha, scale 0 to 100) was 75, the “Plant response rating, Chickweed” value ([4]; Preemergence, 16 g ai/ha, scale 0 to 100, 0 no effect, 100 complete control) was 20 and the “Plant response rating, Chickweed” value ([4]; Preemergence, 31 g ai/ha, scale 0 to 100, 0 no effect, 100 complete control) was 90. The “Plant response rating, Chickweed” value ([4]; Preemergence, 62 g ai/ha, scale 0 to 100) was 90, the “Plant response rating, Chickweed” value ([4]; Preemergence, 125 g ai/ha, scale 0 to 100) was 100 and the “Plant response rating, Chickweed” value ([4]; Preemergence, 250 g ai/ha, scale 0 to 100) was 100. The “Plant response rating: Soybean” value ([5]; Postemergence, 8 g ai/ha) was 15, the “Plant response rating: Soybean” value ([5]; Postemergence, 16 g ai/ha) was 20 and the “Plant response rating: Soybean” value ([5]; Postemergence, 31 g ai/ha) was 30. The “Plant response rating: Soybean” value ([5]; Postemergence, 62 g ai/ha) was 40, the “Plant response rating: Soybean” value ([5]; Postemergence, 125 g ai/ha) was 50 and the “Plant response rating: Soybean” value ([5]; Preemergence, 16 g ai/ha) was 0. The “Plant response rating: Soybean” value ([5]; Preemergence, 31 g ai/ha) was 25, the “Plant response rating: Soybean” value ([5]; Preemergence, 62 g ai/ha) was 35 and the “Plant response rating: Soybean” value ([5]; Preemergence, 125 g ai/ha) was 35. For the same molecule, the “Plant response rating: Soybean” value ([5]; Preemergence, 250 g ai/ha) was 35, the “Plant response rating: Corn” value ([6]; Postemergence, 8 g ai/ha) was 10 and the “Plant response rating: Corn” value ([6]; Postemergence, 16 g ai/ha) was 10. For the same molecule, the “Plant response rating: Corn” value ([6]; Postemergence, 31 g ai/ha) was 10, the “Plant response rating: Corn” value ([6]; Postemergence, 62 g ai/ha) was 20 and the “Plant response rating: Corn” value ([6]; Postemergence, 125 g ai/ha) was 20. The “Plant response rating: Corn” value ([6]; Preemergence, 16 g ai/ha) was 0, the “Plant response rating: Corn” value ([6]; Preemergence, 62 g ai/ha) was 5 and the “Plant response rating: Corn” value ([6]; Preemergence, 125 g ai/ha) was 10. For the same molecule, the “Plant response rating: Corn” value ([6]; Preemergence, 250 g ai/ha) was 10, the “Plant response rating: Crabgrass, Large” value ([7]; 16 g ai/ha) was 75 and the “Plant response rating: Crabgrass, Large” value ([7]; 31 g ai/ha) was 95. For the same molecule, the “Plant response rating: Crabgrass, Large” value ([7]; 62 g ai/ha) was 98, the “Plant response rating: Crabgrass, Large” value ([7]; 125 g ai/ha) was 100 and the “Plant response rating: Crabgrass, Large” value ([7]; 250 g ai/ha) was 100. The “Plant response rating: Nightshade” value ([8]; 16 g ai/ha) was 0, the “Plant response rating: Nightshade” value ([8]; 31 g ai/ha) was 0 and the “Plant response rating: Nightshade” value ([8]; 62 g ai/ha) was 80. The “Plant response rating: Nightshade” value ([8]; 125 g ai/ha) was 98, the “Plant response rating: Nightshade” value ([8]; 250 g ai/ha) was 100 and the “Plant response rating: Smartweed” value ([9]; 8 g ai/ha) was 10. The “Plant response rating: Smartweed” value ([9]; 16 g ai/ha) was 10, the “Plant response rating: Smartweed” value ([9]; 125 g ai/ha) was 40 and the “Plant response rating: Velvetleaf” value ([10]; 16 g ai/ha) was 15. The “Plant response rating: Velvetleaf” value ([10]; 31 g ai/ha) was 30, the “Plant response rating: Velvetleaf” value ([10]; 62 g ai/ha) was 35 and the “Plant response rating: Velvetleaf” value ([10]; 125 g ai/ha) was 50. The “Plant response rating: Velvetleaf” value ([10]; 250 g ai/ha) was 65, the “Plant response rating: Field Bindweed” value ([11]; Postemergence, 16 g ai/ha) was 20 and the “Plant response rating: Field Bindweed” value ([11]; Postemergence, 31 g ai/ha) was 30. For the same molecule, the “Plant response rating: Field Bindweed” value ([11]; Postemergence, 62 g ai/ha) was 35, the “Plant response rating: Field Bindweed” value ([11]; Postemergence, 125 g ai/ha) was 35 and the “Plant response rating: Field Bindweed” value ([11]; Preemergence, 16 g ai/ha) was 0. The “Plant response rating: Field Bindweed” value ([11]; Preemergence, 31 g ai/ha) was 10, the “Plant response rating: Field Bindweed” value ([11]; Preemergence, 62 g ai/ha) was 20 and the “Plant response rating: Field Bindweed” value ([11]; Preemergence, 125 g ai/ha) was 40. The “Plant response rating: Field Bindweed” value ([11]; Preemergence, 250 g ai/ha) was 98.

— patent US9302999B2, “Substituted triazoles as herbicides” (E. I. DU PONT DE NEMOURS AND COMPANY, priority 2012, dated 2016)
